Test results taken from patent US7816408B2, “Calcium receptor active compounds” (NPS Pharmaceuticals, Inc., priority 2002, dated 2010).

Tests used:
human calcium receptor = molecular target: T1, human calcium receptor (Homo sapiens, UniProt P41180); assay: Activity on calcium receptors: fluo-3 fluorescence in HEK293 cells transfected with human calcium receptor gene; assay type: cell-based; conditions: HEK293 cells transfected with plasmid pHuPCaR4.0 (human calcium receptor gene), loaded with fluo-3; 1 mM CaCl2, 1 mM MgCl2
T1 construct: expressed in transfected cells; host or cells: HEK293
T1 sequence (P41180 20-1078): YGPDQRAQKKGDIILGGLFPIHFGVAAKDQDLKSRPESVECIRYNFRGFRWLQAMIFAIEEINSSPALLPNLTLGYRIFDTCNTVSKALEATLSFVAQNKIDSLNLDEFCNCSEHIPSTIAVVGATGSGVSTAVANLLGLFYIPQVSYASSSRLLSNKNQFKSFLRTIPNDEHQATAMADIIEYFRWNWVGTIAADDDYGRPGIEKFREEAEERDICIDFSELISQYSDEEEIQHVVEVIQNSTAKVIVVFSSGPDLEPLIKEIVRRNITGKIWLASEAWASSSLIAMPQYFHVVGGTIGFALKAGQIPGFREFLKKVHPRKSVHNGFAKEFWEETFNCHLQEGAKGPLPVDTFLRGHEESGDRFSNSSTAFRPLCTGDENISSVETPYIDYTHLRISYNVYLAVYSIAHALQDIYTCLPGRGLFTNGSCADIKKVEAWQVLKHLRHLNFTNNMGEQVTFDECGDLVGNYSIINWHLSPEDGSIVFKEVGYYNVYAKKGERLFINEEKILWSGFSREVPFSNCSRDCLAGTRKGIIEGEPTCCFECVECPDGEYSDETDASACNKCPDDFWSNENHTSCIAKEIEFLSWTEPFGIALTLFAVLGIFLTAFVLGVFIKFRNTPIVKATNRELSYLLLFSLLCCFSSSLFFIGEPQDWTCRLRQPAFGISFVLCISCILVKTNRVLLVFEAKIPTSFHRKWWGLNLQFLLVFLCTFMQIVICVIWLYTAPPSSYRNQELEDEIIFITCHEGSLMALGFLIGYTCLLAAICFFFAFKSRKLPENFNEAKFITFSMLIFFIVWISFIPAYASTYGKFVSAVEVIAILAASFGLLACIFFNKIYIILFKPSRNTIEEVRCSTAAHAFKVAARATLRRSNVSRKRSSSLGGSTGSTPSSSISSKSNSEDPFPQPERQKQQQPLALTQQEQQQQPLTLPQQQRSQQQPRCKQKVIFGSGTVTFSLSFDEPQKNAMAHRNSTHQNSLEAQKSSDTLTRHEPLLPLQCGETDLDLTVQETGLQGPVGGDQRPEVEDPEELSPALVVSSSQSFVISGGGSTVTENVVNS
In short: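 HEK293 cells transfected with human calcium receptor plasmid, loaded 1 h at 37 °C with about 5 μM fluo-3/AM. Cells then rinsed into HEPES-buffered HBSS with 1 mM CaCl2 and 1 mM MgCl2. Fluorescence read at 485/540 nm after compound addition.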

normal male SD rats = assay: Plasma Ca^2+ level of rats after single oral administration; assay type: in vivo; conditions: rat, mean of six animals; for Plasma Ca^2+ (mmol/l) 1 hr: 1 hr after single oral dose 30 μmol/kg; for Plasma Ca^2+ (mmol/l) 2 hr: 2 hr after single oral dose 30 μmol/kg; for Plasma Ca^2+ (mmol/l) 4 hr: 4 hr after single oral dose 30 μmol/kg; for Plasma Ca^2+ (mmol/l) 8 hr: 8 hr after single oral dose 30 μmol/kg; for Plasma Ca^2+ (mmol/l) 0 hr: 0 hr = before oral administration of 30 μmol/kg; for Plasma Ca^2+ (mmol/l) 24 hr: 24 hr after single oral dose 30 μmol/kg
In short: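 Normal male SD rats (n=6/group) received a single oral dose of 30 μmol/kg in 10% cyclodextrin or, for some compounds, 1% sodium-CMC; vehicle controls received 2.5 ml/kg. Tail blood was drawn pre-dose and at 30 min and 1, 2, 4, 8 and 24 h for plasma Ca^2+ and serum PTH. PTH was compared with vehicle by Steel's test.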

[1] = vehicle 10% cyclodextrin (** 1% sodium-CMC)

Structure (SMILES)	EC50 (human calcium receptor) [nM]	Plasma Ca^2+ (mmol/l) 1 hr (normal male SD rats; [1]) [mmol/L]	Plasma Ca^2+ (mmol/l) 2 hr (normal male SD rats; [1]) [mmol/L]	Plasma Ca^2+ (mmol/l) 4 hr (normal male SD rats; [1]) [mmol/L]	Plasma Ca^2+ (mmol/l) 8 hr (normal male SD rats; [1]) [mmol/L]	Plasma Ca^2+ (mmol/l) 0 hr (normal male SD rats; [1]) [mmol/L]	Plasma Ca^2+ (mmol/l) 23 hr (footnote *c, 24 hr column) (normal male SD rats; 23 hr after single oral dose 30 μmol/kg, vehicle 10% cyclodextrin (** 1% sodium-CMC))	Plasma Ca^2+ (mmol/l) 27 hr (footnote *b, 24 hr) (normal male SD rats; 27 hr after single oral dose 30 μmol/kg, vehicle 10% cyclodextrin (** 1% sodium-CMC))	Plasma Ca^2+ (mmol/l) 24 hr (normal male SD rats; [1]) [mmol/L]	Plasma Ca^2+ (mmol/l) 48 hr (normal male SD rats; 48 hr after single oral dose 30 μmol/kg, vehicle 10% cyclodextrin) [mmol/L]
COc1cccc(SCCCCN[C@H](C)c2cccc3ccccc23)c1 [Compound K-2269, N-{4-[(3-methoxyphenyl)thio]butyl}-N-[(1R)-1-(1-naphthyl)ethyl]amine]	71	1.152	1.140	1.097	1.173					
CCCCCCOc1cccc(C(C)NCCSc2cc(Cl)ccc2Cl)c1 (racemic) [Compound K-2255, (±)-N-(1-(3-n-hexyloxyphenyl)ethyl)-2-(2′,5′-dichlorophenylthio)ethylamine]	9600	1.328	1.212	1.177	1.232					
Cc1ccc(CN(Cc2ccc(Cl)c(Cl)c2)C(=O)CCN[C@H](C)c2cccc3ccccc23)cc1 [Compound K-2294, N1-(3,4-dichlorobenzyl)-N1-(4-methylbenzyl)-3-{[(1R)-1-(1-naphthyl)ethyl]amino}propanamide]	62	1.357	1.255	1.117	1.022					
C[C@@H](NCCCCCCSc1ccc(OC(F)(F)F)cc1)c1cccc2ccccc12 [Compound K-2301]	800	1.237	1.165	1.077	1.075	1.397	1.350*^c mmol/l			
C[C@@H](NCCCCCSc1c(F)c(F)c(C(F)(F)F)c(F)c1F)c1cccc2ccccc12 [Compound K-2284, N-[(1R)-1-(1-naphthyl)ethyl]-N-(5-{[2,3,5,6-tetrafluoro-4-(trifluoromethyl)phenyl]thio}pentyl) amine]	360	1.377	1.267	1.152	1.102					
C[C@@H](NCCCCSc1cc(Cl)c(Cl)cc1Cl)c1cccc2ccccc12 [Compound K-2281, N-[(1R)-1-(1-naphthyl)ethyl]-N-{4-[(2,4,5-trichlorophenyl)thio]butyl}amine]	430	1.380	1.245	1.103	0.993			1.230*^b mmol/l		
C[C@@H](NCCCCCCSc1ccc(Cl)cc1)c1cccc2ccccc12 [Compound K-2286, N-{6-[(4-chlorophenyl)thio]hexyl}-N-[(1R)-1-(1-naphthyl)ethyl]amine]	620	1.318	1.218	1.088	1.098				1.390	1.412
COc1cccc(SCCCCCN[C@H](C)c2cccc3ccccc23)c1 [Compound K-2279, N-{[5-(3-methoxyphenyl)thio]pentyl}N-[(1R)-1-(1-naphthyl)ethyl]amine]	630	1.200	1.155	1.130	1.210	1.443			1.445	
C[C@@H](NCCC(=O)N(Cc1ccc(Cl)cc1)Cc1ccc2ccccc2c1)c1cccc2ccccc12 [Compound K-2291, N1-(4-chlorobenzyl)-N1-(2-naphthylmethyl)-3-{[(1R)-1-(1-naphthyl)ethyl]amino}propanamide]	81	1.298	1.247	1.130	1.132					
